Patent publication US12600698B2, “Kinase inhibitors” (Vidya Therapeutics, Inc., priority 2021, dated 2026)

Biological target: BTK (Homo sapiens, UniProt Q06187)
Assay: BTK IC50 (EZ reader kinase assay)
Assay type: biochemical
Design: purchased Carna
Conditions: ATP 1 mM, BTK 2 nM, 90 minutes at room temperature
Description: Solutions of compounds (test or control) in DMSO were prepared at the desired concentrations, and serially diluted to 11 concentrations by 3-fold dilution in 384pp-plate using TECAN EVO200. 20 nL of stock were transferred to 384 plate using Echo550. DMSO was used as vehicle control.
Two separate solutions were prepared—an ATP solution containing MgCl2 (10 mM), Brij-35 (0.01%), DTT (2 mM), BSA (0.05%), EGTA (1 mM), HEPE (pH7.5) (50 mM), FLPeptide (6 uM) and ATP (4 mM); and a BTK solution containing MgCl2 (10 mM), Brij-35 (0.01%), DTT (2 mM), BSA (0.05%), EGTA (1 mM), HEPE (pH7.5) (50 mM) and BTK (2.67 nM). (BTK was obtained from Carna; FLPeptide2 was obtained from PerkinElmer and Ibrutinib was obtained from Selleck.) 5 uL of ATP solution were added to each well, followed by addition of 15 uL of BTK solution to initiate the reaction. (Note the final volume of each well was 20 uL containing MgCl2 (10 mM), Brij-35 (0.01%), DTT (2 mM), BSA (0.05%), EGTA (1 mM), HEPE (pH7.5) (50 mM), FLPeptide (1.5 uM), ATP (1 mM) and BTK (2 nM). The plates were incubated at room temperature for 90 minutes and then stopping buffer added (75 uL, containing 0.5 M EDTA) to terminate the reaction. Samples from each well were analyzed using EZ reader.
The % remaining activity was calculated using read conversion ratio (CR) according to the equation: […]
XLFit (equation 201) was used to calculate IC50's by floating both bottom and top.
BTK IC50 values are provided in Table 5, for the compounds described in Examples 1-13, wherein: • “A” denotes an IC50<1 nM; • “B” denotes an IC50 1-10 nM; and • “C” denotes an IC50>10 nM.

Sequence of BTK (Q06187 whole entry): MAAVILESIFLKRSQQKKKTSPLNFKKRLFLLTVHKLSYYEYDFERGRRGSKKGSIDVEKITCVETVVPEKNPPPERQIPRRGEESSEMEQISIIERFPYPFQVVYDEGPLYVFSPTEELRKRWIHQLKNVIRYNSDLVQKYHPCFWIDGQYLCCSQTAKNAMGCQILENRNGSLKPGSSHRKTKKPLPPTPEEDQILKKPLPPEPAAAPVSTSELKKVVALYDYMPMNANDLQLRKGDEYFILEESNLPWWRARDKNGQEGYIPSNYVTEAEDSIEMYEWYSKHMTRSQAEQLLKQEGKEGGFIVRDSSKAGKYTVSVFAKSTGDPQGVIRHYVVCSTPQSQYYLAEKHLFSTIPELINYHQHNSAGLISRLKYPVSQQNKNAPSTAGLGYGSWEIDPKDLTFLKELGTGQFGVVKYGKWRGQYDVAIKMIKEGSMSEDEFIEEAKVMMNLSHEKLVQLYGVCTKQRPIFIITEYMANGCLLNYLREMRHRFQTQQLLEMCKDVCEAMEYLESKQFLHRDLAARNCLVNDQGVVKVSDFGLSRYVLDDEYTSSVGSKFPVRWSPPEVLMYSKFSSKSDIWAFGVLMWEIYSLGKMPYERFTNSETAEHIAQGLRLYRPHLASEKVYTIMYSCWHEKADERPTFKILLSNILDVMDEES

IC50 [nM] | SMILES
1 to 10 | CC#CC(=O)N[C@@H]1CCC[C@@H](c2c(F)c(F)c(C(N)=O)c3[nH]c(C)c(F)c23)C1 [Compound 8-(1R,3R), 4-((1R,3R)-3-(but-2-ynamido)cyclohexyl)-3,5,6-trifluoro-2-methyl-1H-indole-7-carboxamide]
> 10 | CC#CC(=O)N[C@@H]1CCC[C@@H](c2c(F)c(F)c(C(N)=O)c3[nH]c(C)c(C)c23)C1 [Compound 9-(1R,3R), 4-((1R,3R)-3-(but-2-ynamido)cyclohexyl)-5,6-difluoro-2,3-dimethyl-1H-indole-7-carboxamide]
1 to 10 | CC#CC(=O)N[C@H]1CCC[C@@H](c2c(F)c(F)c(C(N)=O)c3[nH]c(C)c(F)c23)C1 [Compound 8-(1R,3S), 4-((1R,3S)-3-(but-2-ynamido)cyclohexyl)-3,5,6-trifluoro-2-methyl-1H-indole-7-carboxamide]
1 to 10 | CC#CC(=O)N[C@H]1CCC[C@H](c2c(F)c(F)c(C(N)=O)c3[nH]c(C)c(C)c23)C1 [Compound 9-(1S,3S), 4-((1S,3S)-3-(but-2-ynamido)cyclohexyl)-5,6-difluoro-2,3-dimethyl-1H-indole-7-carboxamide]
> 10 | CC#CC(=O)N[C@H]1CCC[C@H](c2c(F)c(F)c(C(N)=O)c3[nH]c(C)c(F)c23)C1 [Compound 8-(1S,3S), 4-((1S,3S)-3-(but-2-ynamido)cyclohexyl)-3,5,6-trifluoro-2-methyl-1H-indole-7-carboxamide]
> 10 | CC#CC(=O)N[C@H]1CCC[C@H](c2c(F)c(F)c(C(N)=O)c3[nH]c(C)c(Cl)c23)C1 [11-(1S,3S), 4-[(1S,3S)-3-(but-2-ynoylamino)cyclohexyl]-3-chloro-5,6-difluoro-2-methyl-1H-indole-7-carboxamide]

The next lines start with the compound.

SMILES | IC50 [nM]
CC#CC(=O)N[C@H]1CCC[C@@H](c2c(F)c(F)c(C(N)=O)c3[nH]c(C)c(C)c23)C1 [Compound 9-(1R,3S), 4-((1R,3S)-3-(but-2-ynamido)cyclohexyl)-5,6-difluoro-2,3-dimethyl-1H-indole-7-carboxamide] | > 10
CC#CC(=O)NC1C=C(c2c(F)cc(C(N)=O)c3[nH]c(C)c(Cl)c23)CCC1 (racemic) [5B(rac), 4-(3-(but-2-ynamido)cyclohex-1-en-1-yl)-3-chloro-5-fluoro-2-methyl-1H-indole-7-carboxamide] | 1 to 10
CC#CC(=O)N(C)[C@@H]1C=C(c2c(F)cc(C(N)=O)c3[nH]c(C)c(C)c23)CCC1 [4B(S), (S)-5-fluoro-2,3-dimethyl-4-(3-(N-methylbut-2-ynamido)cyclohex-1-en-1-yl)-1H-indole-7-carboxamide] | 1 to 10
CC#CC(=O)N[C@@H]1CCC[C@H](c2c(F)c(F)c(C(N)=O)c3[nH]c(C)c(C)c23)C1 [Compound 9-(1S,3R), 4-((1S,3R)-3-(but-2-ynamido)cyclohexyl)-5,6-difluoro-2,3-dimethyl-1H-indole-7-carboxamide] | 1 to 10
CC#CC(=O)N[C@H]1C=C(c2c(F)cc(C(N)=O)c3[nH]c(C)c(Cl)c23)CCC1 [5B(R), (R)-4-(3-(but-2-ynamido)cyclohex-1-en-1-yl)-3-chloro-5-fluoro-2-methyl-1H-indole-7-carboxamide] | 1 to 10
CC#CC(=O)N[C@@H]1CC[C@H](c2c(F)cc(C(N)=O)c3[nH]c(C)c(C)c23)C1 [13-(1S,3R), 4-((1S,3R)-3-(but-2-ynamido)cyclopentyl)-5-fluoro-2,3-dimethyl-1H-indole-7-carboxamide] | > 10
CC#CC(=O)N[C@H]1CCC[C@H](c2c(F)c(F)c(C(N)=O)c3[nH]c(C)c(C#N)c23)C1 [Compound 7-(1S,3S), 4-((1S,3S)-3-(but-2-ynamido)cyclohexyl)-3-cyano-5,6-difluoro-2-methyl-1H-indole-7-carboxamide] | > 10
CC#CC(=O)N[C@H]1CCC[C@H](c2c(F)cc(C(N)=O)c3[nH]c(C)c(Cl)c23)C1 (relative stereo) [Compound 6-(trans), 4-((trans)-3-(but-2-ynamido)cyclohexyl)-3-chloro-5-fluoro-2-methyl-1H-indole-7-carboxamide] | 1 to 10
